Measurements reported in the NIST ThermoML archive (doi:10.1021/acs.jced.5b00369).

Assay: relative permittivity at zero frequency (dimensionless); xn = mol fraction of the nth substance listed
Settings: 101 kPa, Liquid, two-terminal dielectric cell

ClC(Cl)(Cl)Cl [tetrachloromethane] + C[N+](=O)[O-]
Settings | relative permittivity at zero frequency
298.15 K, x2 = 0.00098 | 2.24081
298.15 K, x2 = 0.001471 | 2.24714
298.15 K, x2 = 0.001979 | 2.25361
298.15 K, x2 = 0.002444 | 2.25959
298.15 K, x2 = 0.002927 | 2.26574
298.15 K, x2 = 0.003884 | 2.27791
298.15 K, x2 = 0.004245 | 2.28249
298.15 K, x2 = 0.00484 | 2.29002
298.15 K, x2 = 0.005797 | 2.30213
298.15 K, x2 = 0.006743 | 2.31404
298.15 K, x2 = 0.007679 | 2.32583
298.15 K, x2 = 0.008374 | 2.33457
298.15 K, x2 = 0.01041 | 2.35982
298.15 K, x2 = 0.01242 | 2.38483
298.15 K, x2 = 0.01439 | 2.40939
298.15 K, x2 = 0.01577 | 2.42642
298.15 K, x2 = 0.01737 | 2.44616
298.15 K, x2 = 0.01871 | 2.46233
298.15 K, x2 = 0.02204 | 2.50367
298.15 K, x2 = 0.02674 | 2.56122
298.15 K, x2 = 0.03418 | 2.65322
298.15 K, x2 = 0.04333 | 2.76524
298.15 K, x2 = 0.0523 | 2.87591
298.15 K, x2 = 0.0567 | 2.92988
318.15 K, x2 = 0.000162 | 2.23812
318.15 K, x2 = 0.000418 | 2.24125
318.15 K, x2 = 0.0008265 | 2.24641
318.15 K, x2 = 0.001238 | 2.25158
318.15 K, x2 = 0.001648 | 2.25667
318.15 K, x2 = 0.002055 | 2.26176
318.15 K, x2 = 0.00246 | 2.26679
318.15 K, x2 = 0.003263 | 2.2768
318.15 K, x2 = 0.003558 | 2.28051
318.15 K, x2 = 0.004468 | 2.29186
318.15 K, x2 = 0.005663 | 2.30678
318.15 K, x2 = 0.007033 | 2.3239
318.15 K, x2 = 0.007748 | 2.33263
318.15 K, x2 = 0.009707 | 2.35737
318.15 K, x2 = 0.0113 | 2.37756
318.15 K, x2 = 0.01572 | 2.4327
318.15 K, x2 = 0.02009 | 2.48822
318.15 K, x2 = 0.02486 | 2.54795
318.15 K, x2 = 0.02873 | 2.59732
318.15 K, x2 = 0.03299 | 2.65111
318.15 K, x2 = 0.0414 | 2.75865
318.15 K, x2 = 0.04472 | 2.80151
318.15 K, x2 = 0.054 | 2.91886
318.15 K, x2 = 0.06623 | 3.07885
318.15 K, x2 = 0.07426 | 3.18574
318.15 K, x2 = 0.08027 | 3.26614
